# Experimental data from patent US8937096B2, “Use of benzo-fused heterocyle sulfamide derivatives for the treatment of mania and bipolar disorder” (priority 2005, dated 2015).
# Entries after “also recorded” stand apart in the source; their conditions may differ.
# Key:
# dominant rats = test: Dominant-Submissive Relations (DSR) assay: Reduction of Dominant Behavior Model (RDBM) of mania; type: in vivo, rat
# Procedure: (§1) The DSR assay is divided into two models: Reduction of Dominant Behavior Model (RDBM) of mania and Reduction of Submissive Behavior Model (RSBM) of depression. The RDBM, wherein the dominant animals are treated with test compound, is predictive of the ability of the test compound to treat mania. The RSBM, wherein the submissive animals are treated with test compound, is predictive of the ability of the test compound to treat depression.
# (§2) Male Sprague Dawley rats (140 to 160 g) from Charles River Laboratories Wilmington, Mass. were used in this assay. Shipments of rats were received at two-week intervals. Each shipment went through five-day quarantine, one-week acclimation period, and one-week selection process, followed by five-weeks of drug or vehicle treatment to those pairs selected.
# (§3) Rats were housed four per cage. Access to food was restricted to one hour per day after testing on Monday through Thursday. After testing on Friday, rats had free access to food until being fasted again on Sunday. At no time were the rats deprived of water. The food deprivation periods used had little effect on weight gain as the average weight of rats was about 300 g at the end of the study. At the conclusion of experiment rats were sacrificed by decapitation, the trunk blood and brains were collected for in vitro experiments and drug concentration measurements.
# (§4) The basic testing apparatus consisted of two chambers connected with a tunnel only large enough to allow one rat to pass through at a time. On the floor, at the mid-point of the tunnel was a container of sweetened milk. This basic apparatus was replicated, so that a total of four pairs of rats can be video tracked simultaneously. The camera can distinguish rats marked by different colors. Thus, the rats' heads were colored for the purpose of video tracking, red in one cage and yellow in the other cage. Only one animal at a time can have comfortable access to the feeder, but both animals can drink milk during the five-minute daily session. During the five-minute daily sessions, time spent in the feeder zone by each rat was recorded by the video tracking software and saved into a text file.
# The test began with a random assignment of rats into pairs. Each member of a pair was placed in an opposite chamber of the testing apparatus. The time spent in the feeder zone by each animal was recorded. During the first week (five days) of testing the animals habituate to the new environment. Dominance was assigned to the animal with the highest score during the second week of testing if three criteria were achieved. First, there must have been a significant difference (two-tailed t-test, P<0.05) between the average daily drinking scores of both animals. Second, the dominant animal score must have been at least 25% greater than the submissive animal's score. Finally, there must have been no “reversals” during the pair selection week where the putative submissive rat out-scored its dominant partner on isolated occasions. Ideally there were minimal reversals during the acclimation week as well. About twenty-five to thirty-three percent of the initial animal pairs achieved these criteria and only these pairs were continued in the study.
# (§5) Significant differences between time spent on the feeder by dominant and submissive rats were determined by ANOVA using GraphPad Prism software (GraphPad Software, Inc. San Diego, Calif.) followed by a two-tailed t-test (P<0.05). Comparisons were made between treatment groups using normalized dominance level values in paired animals. The dominance level is a value that measures social relation between paired subjects. Dominance level (DL)=FTD−FTS where FTD is the feeder time of dominant rats and FTS is the feeder time of submissive rats. The normalization was conducted according to the formula: Dominance Level(week n in %)=(Dominance Level(week n))/(Dominance Level(week 2) […]
# [1] = test system: LTG-resistant amygdala kindled seizures; test: Lamotrigine Resistant Amygdala Kindled Rat Model (Interruption of Kindled State); type: in vivo; conditions: 75 mg/kg i.p.
# Procedure: Amygdala kindling is less severe than hippocampal kindling, such that many AEDs are effective against amygdala kindled seizures, but are ineffective against hippocampal kindled seizures. […] Fifteen minutes after the last stimulation, a single dose of vehicle or test compound was administered i.p. After 15 min, each rat was then stimulated every 30 min for 3 to 4 h. After each stimulation, individual seizure scores and after-discharge durations were recorded. The group mean±SEM was calculated for each parameter.
# submissive rats = test: Dominant-Submissive Relations (DSR) assay: Reduction of Submissive Behavior Model (RSBM) of depression; type: in vivo, rat
# Procedure: as §1, §2, §3, §4
# The test began with a random assignment of rats into pairs. Each member of a pair was placed in an opposite chamber of the testing apparatus. The time spent in the feeder zone by each animal was recorded. During the first week (five days) of testing the animals habituate to the new environment. Dominance was assigned to the animal with the highest score during the second week of testing if three criteria were achieved. First, there must have been a significant difference (two-tailed t-test, P<0.05) between the average daily drinking scores of both animals. Second, the dominant animal score must have been at least 25% greater than the submissive animal's score. Finally, there must have been no “reversals” during the pair selection week where the putative submissive rat out-scored its dominant partner on isolated occasions. Ideally there were minimal reversals during the acclimation week as well. About twenty-five to thirty-three percent of the initial animal pairs achieved these criteria and only these pairs were continued in the study. […]
# as §5
smiles,measurement,setting,value
"NS(=O)(=O)NC[C@H]1COc2cc(Cl)ccc2O1 [Compound #8, (2S)-(−)-N-(6-Chloro-2,3-dihydro-benzo[1,4]dioxin-2-ylmethyl)-sulfamide]",AOT50 compared with lithium,"dominant rats; 0.05 mg/kg and 0.5 mg/kg, non-linear regression fit of normalized daily DL values",significantly shorter from that of lithium
same,first day of consistent lack of statistical significance between feeder time of dominant and submissive rats (activity onset time),dominant rats; 0.05 mg/kg p.o. QD,3 days
same,first day of consistent lack of statistical significance between feeder time of dominant and submissive rats (activity onset time),dominant rats; 0.5 mg/kg p.o. QD,4 days
same,dominance level (DL) values vs vehicle,"dominant rats; 0.5 mg/kg p.o. QD, 5 weeks, strongest effect",significant difference in dominance level (DL) values between vehicle and compound treated rats starting in the second week
same,first day of consistent lack of statistical significance between feeder time of dominant and submissive rats (activity onset time),dominant rats; 2.5 mg/kg p.o. QD,10 days
same,dominance level (DL) response,"dominant rats; 2.5 mg/kg, 5.0 mg/kg and 50.0 mg/kg p.o., compared with 0.5 mg/kg dose (not significantly different)",weaker response
same,first day of consistent lack of statistical significance between feeder time of dominant and submissive rats (activity onset time),dominant rats; 5.0 mg/kg p.o. QD,11 days
same,first day of consistent lack of statistical significance between feeder time of dominant and submissive rats (activity onset time),dominant rats; 50.0 mg/kg p.o. QD,3 days
same,ED50,"dominant rats; Rattus norvegicus, po, p.o. QD, calculated",0.03 ± 0.004 mg/kg
same,difference between dominant and submissive rats lost,"dominant rats; dominant rats treated p.o. QD at 0.05 mg/kg, 0.5 mg/kg and 50.0 mg/kg",lost after the first week of treatment
same,difference between dominant and submissive rats lost,dominant rats; dominant rats treated p.o. QD at 2.5 mg/kg and 5.0 mg/kg,after the second week of treatment
same,dominant behavior,dominant rats; overall result of the assay,reduced dominant behavior
same,Emax in the RDBM,"dominant rats; p.o. QD, calculated",116.4±2.3%
same,permissiveness of the treated dominant rats,dominant rats; treated dominant rats permitted submissive partners to increase time on the feeder,observed to increase
same,after-discharge duration reduced,[1],86%
same,rats exhibiting ataxia and sedation,[1]; n=9,Four of the nine
same,rats protected,[1]; n=9,Eight out of nine
same,after-discharge duration after treatment,[1]; from 73 sec,10 s
same,seizure score after treatment,[1]; reduced from a 5,0.8
same,loss of significance between dominant and submissive rats feeder time,submissive rats; 2.5 mg/kg and 120.0 mg/kg p.o.,no consistent loss of significance
same,Activity Onset Time at the 50% effect (AOT50),submissive rats; 2.5 mg/kg p.o.,2.1 days
same,Dominance Level (DL) values vs control,submissive rats; 2.5 mg/kg p.o.,did not significantly differ from control
same,"maximum of the effect (non-linear regression), ± SEM",submissive rats; 2.5 mg/kg p.o.,52.4±32.7%
same,Activity Onset Time at the 50% effect (AOT50),submissive rats; 12 mg/kg p.o.,5.3 days
same,"maximum of the effect (non-linear regression), ± SEM",submissive rats; 12 mg/kg p.o.,87.9±42.6%
same,Dominance Level (DL) values vs control,submissive rats; 12.0 mg/kg p.o.,"significantly different from vehicle treated controls after the second, fourth and fifth week of treatment"
same,first day of consistent lack of statistical significance between feeder time of dominant and submissive rats (activity onset time),submissive rats; 12.0 mg/kg p.o.,6 days
same,Activity Onset Time at the 50% effect (AOT50),submissive rats; 60 mg/kg p.o.,1.6 days
same,Dominance Level (DL) values vs control,submissive rats; 60 mg/kg p.o.,significant difference in DL values relative to vehicle starting at the first week and continuing through the treatment duration of 5 weeks
same,first day of consistent lack of statistical significance between feeder time of dominant and submissive rats (activity onset time),submissive rats; 60 mg/kg p.o.,4 days
same,"maximum of the effect (non-linear regression), ± SEM",submissive rats; 60 mg/kg p.o.,116.9±29.5%
same,Dominance Level (DL) values vs control,"submissive rats; 120 mg/kg p.o., significance dissipated after the second week",significantly different from the control group after first week
same,submissiveness during first week of treatment,"submissive rats; fluoxetine 10 mg/kg i.p., Compound #8 treated groups p.o.",did not show this effect
same,submissive behavior,"submissive rats; p.o. once a day for 5 weeks, 2.5-120 mg/kg",reduce submissive behavior in a dose-dependent manner; also recorded: reduced submissive behavior
same,Emax in the RSBM,"submissive rats; p.o., calculated",131.4±4.7%
same,significant difference between dominant and submissive rats lost,"submissive rats; submissive rats treated p.o., all doses used (2.5, 12, 60, 120 mg/kg)",lost after the first week of treatment
